Assay results taken from patent publication US6458826B2, “Composition for repelling and deterring pests” (Navartis Animal Health US, Inc., priority 1998, dated 2002).

Key:
[1] = tested on: Boophilus microplus Biarra (larvae); test: Arena test in vitro against Boophilus microplus Biarra (larvae); type: in vivo; settings: even up to a dilution of 3.2 μg/cm^2
Description: (§1) This method is carried out in titre plates having 6 wells with a cross-section of 5 cm each, using a computer-supported video system. Each well of the titre plate is lined with a circular filter paper or another suitable carrier material. The substance of formula I to be tested is dissolved in methanol, acetonitrile or another suitable solvent, with ultrasound treatment and heating being employed for poorly-soluble substances. In an amount of 1 to 100 μg/cm^2, the dissolved test substance is placed in the centre of the filter paper on a quadrant or circular area of ca. 2.4 cm^2 radius. 4 of the 6 wells are filled with different test substances or with the same test substance in different dilutions (e.g. 1, 3.2, 5, 10 and 20 μg/cm^2). The 5th well is treated with DEET (N,N-diethyl-m-toluamide) as standard substance. The 6th well is filled with the pure solvent and serves as a control. 60 to 100 larvae or 25 to 50 nymphs or 10 to 25 adults of the parasite to be tested, e.g. ticks, are added to each filter paper, and the system is covered with a pane of glass and positioned under a video camera. At intervals of 5 seconds, the video camera takes individual pictures of all 6 wells. For a qualitative evaluation, these images are observed in a time-lapse as a continuous film, optically following the movements of the parasites on the filter paper and comparing them with the movements in the control well no. 6 or with the standard in the 5th well. A qualitative observation is thus made as to whether the test parasites move evenly over the whole surface of the filter paper and ignore the test substance, or whether and over what period they avoid the treated zone, and what influence the dilution of the test substance has on the behaviour of the test parasites. In this way, neutral and repellent substances are determined. At the same time, the duration of activity of the test substance is determined and compared with that of the standard. […] This frequency is evaluated statistically and thus quantitatively by the Willcoxon method in a comparison with the control and with the standard. […]

[2] = tested on: Rhipicephalus sanguineus (nymphs); test: Arena test in vitro against Rhipicephalus sanguineus (nymphs); type: in vivo; settings: even up to a dilution of 3.2 μg/cm^2
Description: as §1

[3] = tested on: Amblyomma hebraeum or variegatum (nymphs); test: Arena test in vitro against Amblyomma hebraeum or variegatum (nymphs); type: in vivo; settings: even up to a dilution of 3.2 μg/cm^2
Description: as §1

ticks = test: Arena test method for testing vermin-repellent substances; type: in vivo; settings: 1 to 100 μg/cm^2 on filter paper, video evaluation versus control and DEET
Description: Arena Test Method for Testing Vermin-repellent Substances
This method is carried out in titre plates having 6 wells with a cross-section of 5 cm each, using a computer-supported video system. Each well of the titre plate is lined with a circular filter paper or another suitable carrier material. The substance of formula I to be tested is dissolved in methanol, acetonitrile or another suitable solvent, with ultrasound treatment and heating being employed for poorly-soluble substances. In an amount of 1 to 100 μg/cm^2, the dissolved test substance is placed in the centre of the filter paper on a quadrant or circular area of ca. 2.4 cm^2 radius. 4 of the 6 wells are filled with different test substances or with the same test substance in different dilutions (e.g. 1, 3.2, 5, 10 and 20 μg/cm^2). The 5th well is treated with DEET (N,N-diethyl-m-toluamide) as standard substance. The 6th well is filled with the pure solvent and serves as a control. […] In this way, neutral and repellent substances are determined. At the same time, the duration of activity of the test substance is determined and compared with that of the standard. […] This frequency is evaluated statistically and thus quantitatively by the Willcoxon method in a comparison with the control and with the standard. […]

vermin = settings: cited from earlier work

Row | Structure (SMILES) | long-term activity against Boophilus larvae [1] | long-term activity against Rhipicephalus sanguineus nymphs [2] | long-term activity against Amblyomma nymphs [3] | repellent activity in arena test (ticks) | time after which it has to be reapplied (volatilizes rather rapidly) (vermin)
1 | OC(c1ccccc1)C1CCCN1 (stereo not drawn) [Compound 1.31, 2-[(1-phenyl)(1-hydroxy)methyl]pyrrolidine] | Particularly marked long-term activity | Particularly marked long-term activity | Particularly marked long-term activity |  | 
2 | OC(c1ccc(Cl)cc1)C1CCCN1 (stereo not drawn) [Compound 1.45, 2-[(1-[4-chorophenyl])(1-hydroxy)methyl]pyrrolidine] | Particularly marked long-term activity | Particularly marked long-term activity | Particularly marked long-term activity | excellent activity | 
3 | Cc1ccc(C(O)C2CCC(C)(C)N2)c(C)c1 (stereo not drawn) [Compound 1.55, 2-[(1-[2,4-dimethylphenyl])(1-hydroxy)methyl]-5,5-dimethyl-pyrrolidine] | Particularly marked long-term activity | Particularly marked long-term activity | Particularly marked long-term activity | excellent activity | 
4 | CCN(CC)C(=O)c1cccc(C)c1 [DEET, N,N-diethyl-m-toluamide] |  |  |  |  | ca. 2 hours
